According to article PMC5384001 (Scientific Reports, 2017):
Where a chain is given by its changes, count along the chain named.

Tests used:
GluD2-Lc(Y496F) = target: T1, GluD2-Lc(Y496F) (Rattus norvegicus, UniProt Q63226, A654T/Y496F); test: Two-electrode voltage clamp in Xenopus oocytes, inhibition of spontaneous currents; type: cell-based; details: fraction of spontaneous current inhibited by saturating D-serine
T1 construct: the function of full-length receptors as well, we introduced them into the GluD2 lurcher mutant (GluD2-Lc); expressed in transfected cells; host or cells: Xenopus laevis oocytes injected with cRNA
T1 sequence (Q63226 24-1007 Y496F/A654T): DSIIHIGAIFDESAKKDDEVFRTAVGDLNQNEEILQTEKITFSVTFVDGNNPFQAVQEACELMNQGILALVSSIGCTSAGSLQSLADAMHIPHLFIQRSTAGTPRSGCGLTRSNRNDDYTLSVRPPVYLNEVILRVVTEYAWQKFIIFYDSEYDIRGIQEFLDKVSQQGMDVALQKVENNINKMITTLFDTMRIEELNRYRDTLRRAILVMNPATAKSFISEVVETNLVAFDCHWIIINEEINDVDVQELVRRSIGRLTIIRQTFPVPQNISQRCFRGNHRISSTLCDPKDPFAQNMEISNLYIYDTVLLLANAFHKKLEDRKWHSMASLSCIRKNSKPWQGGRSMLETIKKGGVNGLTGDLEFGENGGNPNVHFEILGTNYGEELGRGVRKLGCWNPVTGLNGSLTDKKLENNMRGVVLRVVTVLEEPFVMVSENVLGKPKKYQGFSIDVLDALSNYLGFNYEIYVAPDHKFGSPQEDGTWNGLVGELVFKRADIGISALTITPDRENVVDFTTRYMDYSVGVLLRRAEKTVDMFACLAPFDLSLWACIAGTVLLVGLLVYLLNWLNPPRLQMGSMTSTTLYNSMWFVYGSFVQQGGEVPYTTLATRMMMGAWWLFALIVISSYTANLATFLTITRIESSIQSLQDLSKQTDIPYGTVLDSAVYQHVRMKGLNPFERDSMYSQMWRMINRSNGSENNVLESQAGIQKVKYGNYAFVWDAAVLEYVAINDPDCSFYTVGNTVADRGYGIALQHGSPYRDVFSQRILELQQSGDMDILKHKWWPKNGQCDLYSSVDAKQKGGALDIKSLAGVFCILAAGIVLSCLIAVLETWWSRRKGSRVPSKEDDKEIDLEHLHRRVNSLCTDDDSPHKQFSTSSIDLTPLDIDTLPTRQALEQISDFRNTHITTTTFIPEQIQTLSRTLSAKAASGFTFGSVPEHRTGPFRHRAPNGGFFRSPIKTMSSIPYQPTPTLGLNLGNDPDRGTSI
Description: (§1) All cDNAs for expression in Xenopus oocytes were cloned into the vector pSGEM[30]. Point mutants of GluD2-Lc were constructed by overlap extension PCR with mutagenic oligonucleotide primers. The GluD2-Lc-(H)GluN1 chimera was constructed by transferring the S1- and S2-encoding sequences from GluD2-LBD-(H)GluN1 to GluD2-Lc via overlap extension PCR using tail primers. The S1 and S2 sequences were transferred separately, yielding GluD2-Lc-(HS1)GluN1 and GluD2-Lc-(HS2)GluN1 constructs. GluD2-Lc-(H)GluN1 was then produced from these by another overlap extension PCR. Complementary RNA (cRNA) for injection into oocytes was synthesised from 1 μg of linearised template DNA with the mMESSAGE mMACHINE in vitro transcription kit (Ambion, Austin, TX, USA).
(§2) Oocytes were obtained by surgically removing parts of the ovaries from Xenopus laevis (Nasco, Fort Atkinson, WI, USA) anaesthetised with 1.5 g/L 3-aminobenzoic acid ethylester (Sigma, Taufkirchen, Germany). […] Oocytes were injected with 11 ng cRNA (10 ng of each cRNA for co-expression of GluN1 and GluN2A) using a nanoliter injector (WPI, Sarasota, FL, USA). Four days after cRNA injection, current responses were recorded under voltage clamp at –70 mV with a Turbo Tec-10CD amplifier (npi electronic, Tamm, Germany) controlled by Patchmaster software (HEKA, Lambrecht, Germany). Currents were filtered with a 20 Hz low-pass filter and then digitised with a sampling rate of 50 Hz. Recording electrodes were pulled from borosilicate glass (Hilgenberg, Malsfeld, Germany) with an L/M-3P-A vertical pipette puller (List-Medical), filled with 3 M KCl, and had resistances of 0.5–5 MΩ (voltage electrode) or 0.5–1.5 MΩ (current electrode). Recordings were performed in a 50 μL chamber under constant superfusion with extracellular solution at a flow rate of 3–5 mL/min. […] Finally, Ba-NFR and then NMDGR were applied again to check for reversibility.

GluD2-Lc(Y770F) = target: T2, GluD2-Lc(Y770F) (Rattus norvegicus, UniProt Q63226, A654T/Y770F); test: as above; type: cell-based; details: fraction of spontaneous current inhibited by saturating D-serine
T2 construct: the function of full-length receptors as well, we introduced them into the GluD2 lurcher mutant (GluD2-Lc); expressed in transfected cells; host or cells: Xenopus laevis oocytes injected with cRNA
T2 sequence (Q63226 24-1007 A654T/Y770F): T1 sequence (Q63226 24-1007 Y496F/A654T) with F473Y, Y747F
Description: as §1, §2

N[C@H](CO)C(=O)O [D-serine]
D-serine efficacy Mean ± SEM (GluD2-Lc(Y496F)): 43.5 ± 2.0%
D-serine efficacy Mean ± SEM (GluD2-Lc(Y770F)): 59.9 ± 1.7%
